# In patent publication US4340672A, “Enzymatic synthesis of β-lactam antibacterials” (Shionogi & Co., Ltd., priority 1979, dated 1982):
# Assays:
# [1] = test system: A. globiformis M-345-2 acylase; test: Selectivity of the acylases; settings: ester (I) 45 mg, amine (II) 9 mg, 37° C., 3 hours 45 minutes; TLC and paper-disc assay with Bacillus subtilis PCI-219
# [2] = test system: A. fragerum M-2183-1 acylase; test: Selectivity of the acylases; settings: ester (I) 45 mg, amine (II) 9 mg, 37° C., 3 hours 45 minutes; TLC and paper-disc assay with Bacillus subtilis PCI-219
# [3] = test system: B. Circulans M-1123-5 acylase; test: Selectivity of the acylases; settings: ester (I) 45 mg, amine (II) 9 mg, 37° C., 3 hours 45 minutes; TLC and paper-disc assay with Bacillus subtilis PCI-219
# [4] = test system: acylase of Xanthomonas axonopodis M-621-1 on Sepharose 4B; test: Cephalexin production with immobilized enzyme of Xanthomonas axonopodis M-621-1; type: biochemical; settings: ester 45 mg, 7-aminodeacetoxycephalosporanic acid 3 mg, 37° C., 3.5 hours
# [5] = test system: immobilized enzyme (acylase) of Bacillus circulans M-1123-5 on Sepharose 4B; test: Reactivity of TA esters by batch process; type: biochemical; settings: 7-ACA to CET, 7-ACA 30 mg in 10 ml, pH 7.0, 37° C., 3 hours
# Experimental: To a solution of 7-ACA (30 mg) and TA-esters (given amount) in M/10-phosphate buffer (pH 7.0) (10 ml) is added an immobilized enzyme (0.9 g) on Sepharose 4B, and the mixture is stirred at 37° C. for 3 hours. Concentration of CET in the reaction mixture is estimated by assaying antibacterial activity against Bacillus subtilis PCI-219 and conversion rate from 7-ACA to CET is calculated.
# [6] = test system: immobilized enzyme (acylase) of Bacillus circulans M-1123-5; test: Reactivity of TA esters by column method; type: biochemical; settings: 7-ACA 5 mg/ml, 37° C., 25 ml/hr
# Experimental: Concentration of CET in the eluate is determined by assaying antibacterial activity against Bacillus subtilis PCI-219 to estimate the yield on Table 3 in the laminar flow state. (Immobilization of purified enzyme)
# [7] = test system: acylase of Micrococcus roseus M-1054-1 (broth); test: Cephalothin production with broth of Micrococcus roseus; type: biochemical; settings: 3.5 hours at 37° C.; paper disc assay against Bacillus subtilis PCI-219
# Experimental: The broth is adjusted to pH 7.0. The broth (4.5 ml) is added to a solution of 7-ACA (3%) and (i) 2-thienylacetic acid glycerin ester, (ii) 2-thienylacetic acid tetraethyleneglycol ester or (iii) 2-thienylacetic acid octaethyleneglycol ester in 0.2 M-phosphate buffer (0.5 ml) to react for 3.5 hours at 37° C. The reaction mixture is centrifuged to remove cells and the supernatant is assayed by paper disc assay method against Bacillus subtilis PCI-219 to the following values of produced cephalothin.
# [8] = test system: acylase of Micrococcus luteus M-331-1 (dried cells); test: CET production with dried cells of Micrococcus luteus M-331-1; type: biochemical; settings: dried cells 26 mg, 3 hours, 37° C., pH 7.0
# Experimental: The broth is added into an aqueous medium (100 volumes) of the same composition as above, and incubated for 3 days at 28° C.
# The broth is neutralized with hydrochloric acid to pH 7, centrifuged to collect the cells, washed with water and dried by washing with acetone to give 1.302 g of dry cells.
# The dried cells (26 mg) are suspended in water (1.5 ml), diluted with a solution of 7-ACA (4 mg/ml) and TA-tetraester (20 mg/ml) in M/5-phosphate buffer (pH 7.0) (0.5 ml) and shaken for 3 hours at 37° C. to produce CET at a conversion rate of about 30%. (Immobilized cell entrapted in acrylamide gel)
# [9] = test system: immobilized enzyme from Arthrobacter globiformis M-345-2; test: Acylating capacity of immobilized enzyme from Arthrobacter globiformis M-345-2; type: biochemical
# [10] = test system: acylase of Bacillus circulans M-1123-5 absorbed on Celite 560; test: Acylating capacity of absorbed enzyme on Celite 560; type: biochemical
# [11] = test system: acylase of Micrococcus luteus M-331-1 (immobilized cells); test: CET production with immobilized cells in acrylamide gel; type: biochemical; settings: 7-ACA 1 mg/ml
# Experimental: In a solution of acrylamide monomer (750 mg) and N,N'-methylenebisacrylamide (40 mg) in M/20-phosphate buffer (pH 7.0) (4 ml) are suspended said dry cells (1 g). To this solution is added 5% 3-dimethylaminopropionitrile (0.5 ml) and aqueous 1% potassium persulfate (0.5 ml) and the mixture is allowed to stand at 25° C. for 30 minutes. Produced gel is crushed with blender and produced particles over 100 mesh are collected, filled in a 10 mm .phi. tube, and washed with M/20-phosphate buffer (pH 7.0) to give a column (10.2 ml) of immobilized cells.
# Solubility in water = type: physicochemical; settings: read-out: concentration that can dissolve in water
# [12] = test system: purified acylase of Bacillus circulans M-1123-5 immobilized on agar gel; test: Acylating capacity of immobilized pure enzyme; type: biochemical
# [13] = TA-tetraester 12.5 mg/ml, pH 7.0
# [14] = TA-tetraester 18.8 mg/ml, pH 7.0
compound,measurement,setting,value
COCCOCCOCCOCCOCCOC(=O)Cn1cnnn1,"product detected and determined, A. globiformis M-345-2",[1],43.7
same,"product detected and determined, A. fragerum M-2183-1",[2],54.9
same,"product detected and determined, B. Circulans M-1123-5",[3],55.7
COCCOCCOC(=O)[C@H](N)c1ccccc1 [D-phenylglycin diethyleneglycol ester methyl ether],conversion rate to cephalexin,[4],26.3%
O=C(Cc1ccccc1)OCCOCCOCCOCCO [drawing 18],"product detected and determined, A. globiformis M-345-2",[1],10.1
same,"product detected and determined, A. fragerum M-2183-1",[2],16.1
same,"product detected and determined, B. Circulans M-1123-5",[3],36.2
O=C(Cc1cccs1)OCCOCCOCCOCCOCCO [TA-pentaester],Conversion rate (%),[5],80.6%
same,7-ACA→CET Conversion rate (%),[6]; carrier Sepharose 4B,69.9%
"O=C(Cc1cccs1)OCC(O)CO (stereo not shown) [TA-glycerin ester, 2-thienylacetic acid glycerin ester]",produced cephalothin,[7],34 µg/mL
same,Conversion rate (%),[5],73.7%
same,7-ACA→CET Conversion rate (%),[6]; carrier Sepharose 4B,82.0%
"O=C(Cc1cccs1)OCCOCCOCCOCCO [TA-tetraester, 2-thienylacetic acid tetraethyleneglycol ester]",conversion rate (CET produced),[8],about 30%
same,Conversion rate,"[9]; 7-ACA 1 mg/ml, TA-ester 114, Sephalose 4B",78.5%
same,Conversion rate,"[9]; 7-ACA 1 mg/ml, TA-ester 120, Sephalose 4B",83.7%
same,Conversion rate,"[9]; 7-ACA 2 mg/ml, TA-ester 120, Sephalose 4B",71.0%
same,Conversion rate,"[9]; 7-ACA 3 mg/ml, TA-ester 120, Sephalose 4B",56.3%
same,produced cephalothin,[7],26 µg/mL
same,Conversion rate (%),[5],77.1%
same,7-ACA→CET Conversion rate (%),[6]; carrier Agar gel,85.0%
same,7-ACA→CET Conversion rate (%),[6]; carrier Sepharose 4B,87.6%
same,7-ACA→CET Conversion rate (%) In eluate,[10]; [13],63.0%
same,7-ACA→CET Conversion rate (%) Isolated Na salt,[10]; [13],53.0%
same,7-ACA→CET Conversion rate (%) In eluate,[10]; [14],63.0%
same,7-ACA→CET Conversion rate (%) Isolated Na salt,[10]; [14],64.2%
same,7-ACA→CET Conversion rate (%) In eluate,"[10]; TA-tetraester 25 mg/ml, pH 6.0",62.8%
same,7-ACA→CET Conversion rate (%) Isolated Na salt,"[10]; TA-tetraester 25 mg/ml, pH 6.0",48.5%
same,7-ACA→CET Conversion rate (%) In eluate,"[10]; TA-tetraester 25 mg/ml, pH 7.0",72.9%
same,7-ACA→CET Conversion rate (%) Isolated Na salt,"[10]; TA-tetraester 25 mg/ml, pH 7.0",67.2%
same,7-ACA→CET Conversion rate (%) In eluate,"[10]; TA-tetraester 25 mg/ml, pH 8.0",71.6%
same,7-ACA→CET Conversion rate (%) Isolated Na salt,"[10]; TA-tetraester 25 mg/ml, pH 8.0",49.3%
same,conversion rate (CET in eluate),[11]; TA-tetraester 6 mg/ml,28.6 to 32.5%
same,conversion rate (CET in eluate),[11]; TA-tetraester 30 mg/ml,31.2 to 34.1%
COC(=O)Cc1cccs1 [2-thienylacetic acid methyl ester],solubility,Solubility in water,10000 µg/mL
COCCOCCOCCOCCOC(=O)Cc1cccs1 [TA-tetraester methyl ether],Conversion rate (%),[5],73.3%
same,7-ACA→CET Conversion rate (%),[6]; carrier Agar gel,86.5%
same,7-ACA→CET Conversion rate (%),[6]; carrier Sepharose 4B,86.5%
COCCOCCOC(=O)C(N)c1ccccc1 (stereo not shown),"product detected and determined, A. globiformis M-345-2",[1],10.6
same,"product detected and determined, B. Circulans M-1123-5",[3],29.6
COCCOCCOCCOCCOCCOCCOCCOCCOC(=O)Cc1cccs1 [TA-octaester methyl ether],Conversion rate,"[9]; 7-ACA 1 mg/ml, TA-ester 60, Agar gel",80.5%
same,Conversion rate,"[9]; 7-ACA 1 mg/ml, TA-ester 114, Agar gel",76.5%
same,Conversion rate (%),[5],68.2%
same,7-ACA→CET Conversion rate (%),[6]; carrier Agar gel,69.8%
same,7-ACA→CET Conversion rate (%),[6]; carrier Sepharose 4B,69.8%
same,7-ACA→CET Conversion rate (%),"[12]; Elute 39 ml, 7-ACA 10 mg/ml, ester 142.2 mg/ml, 16 ml/hr",84.8%
same,7-ACA→CET Conversion rate (%),[12]; Elute 173 ml,85.2%
same,7-ACA→CET Conversion rate (%),[12]; Elute 306 ml,85.3%
same,7-ACA→CET Conversion rate (%),[12]; Elute 405 ml,90.4%
same,7-ACA→CET Conversion rate (%),[12]; Elute 731 ml,85.7%
same,7-ACA→CET Conversion rate (%),[12]; Elute 782 ml,86.3%
same,7-ACA→CET Conversion rate (%),[12]; Elute 917 ml,88.5%
same,7-ACA→CET Conversion rate (%),[12]; Elute 1089 ml,86.9%
same,7-ACA→CET Conversion rate (%),[12]; Elute 1156 ml,86.6%
same,7-ACA→CET Conversion rate (%),[12]; Elute 1294 ml,82.5%
same,7-ACA→CET Conversion rate (%),[12]; Elute 1432 ml,83.1%
same,7-ACA→CET Conversion rate (%),[12]; Elute 1534 ml,82.0%
"O=C(Cc1cccs1)OCCOCCOCCOCCOCCOCCOCCOCCO [TA-octaester, 2-thienylacetic acid octaethyleneglycol ester]",produced cephalothin,[7],22 µg/mL
same,Conversion rate (%),[5],76.2%
O=C(Cc1ccccc1)OCCOCCOCCOCCO [drawing 20],"product detected and determined, A. globiformis M-345-2",[1],18.0
same,"product detected and determined, A. fragerum M-2183-1",[2],20.3
same,"product detected and determined, B. Circulans M-1123-5",[3],Decomposition with penicillinase
